Measurements: PMC9290507, “Rh^II‐Catalyzed De‐symmetrization of Ethane‐1,2‐dithiol and Propane‐1,3‐dithiol Yields Metallo‐β‐lactamase Inhibitors” (Chemmedchem, 2021)

Columns and labels:
[1] = target: T1, NDM‐1 (Klebsiella pneumoniae, UniProt C7C422); assay: Fluorescence-based enzyme activity assay (Fluorocillin), NDM-1; format: biochemical; settings: for Effect of added zinc ions on inhibitory activity (NDM-1): 10 μM compound, additional 100 μM ZnCl2 in assay buffer
T1 construct: made in house
Procedure: (§1) In order to investigate the structure‐activity relationships of the dithiol library, we measured the inhibitory activity of 3 a–x in a fluorescence‐based enzyme activity assay (Table 1). Two relevant β‐lactamase isoforms, NDM‐1 and VIM‐1 were selected for in vitro assays. The fluorogenic substrate fluorocillin[15] was prepared according to literature and its conversion was monitored as described previously.[6] In general, a linear relationship between the potency of 3 a–x towards both enzymes could be observed, however, inhibitory potency towards VIM‐1 was almost tenfold higher (Figure 3). A very clear preference for the propane‐1,3‐dithiol over ethane‐1,2‐dithiol compounds could be observed from matched molecular pairs.
(§2) Activity assays for MBLs were performed at room temperature in black polystyrol 96well plates (Corning, Corning, NY, USA) using dicefalotinodifluorofluorescein (Fluorocillin) as a substrate. Proteins were diluted in assay buffer (HEPES 50 mM, pH 7.5 containing 0.01 %Triton X‐100), with final protein concentrations of NDM‐1: 3 nM, or VIM‐1: 4 nM. Samples were supplemented with an equimolar amount of ZnCl2. An amount of 1 μL of compounds 3 a–3 x at different concentrations was incubated with 89 μL of enzyme in assay buffer. After an incubation period of 30 min at room temperature, 10 μL of Fluorocillin substrate was added to yield the final assay volume of 100 μL. Final concentration of DMSO was 1 %. The fluorescence emitted by the fluorescent product difluorofluorescein was monitored every 45 s for 30 cycles using a Tecan fluorescent plate reader (Infinite 200; excitation at 495 nm and emission at 525 nm) and was compared with a standard curve. The rate of the enzymatic reaction was obtained by dividing the quantity of the fluorescent product (RFU) by time (min). Negative controls were measured in the absence of enzyme, whereas the positive controls were measured in the presence of enzyme and in the absence of inhibitors. The inhibitory effect of each substance was measured in triplicate in three independent experiments. IC50 values were calculated using data obtained from measurements with at least eight different inhibitor concentrations, applying a sigmoidal dose–response (variable slope with four parameters) equation using GraphPad Prism 5 (GraphPad Software, La Jolla, CA, USA) software. In order to investigate the inhibitory activity of 3 a, 3 o, or 3 s in the presence of a high Zn^2+ concentration, assay buffer containing an additional 100 μM ZnCl2 was used. The assay was performed as described above with NDM‐1 or VIM‐1 and 10 μM of 3 a, 3 o, or 3 s.

[2] = target: T2, VIM‐1 (Pseudomonas aeruginosa, UniProt A0A0F7KYQ8); assay: Fluorescence-based enzyme activity assay (Fluorocillin), VIM-1; format: biochemical; settings: for Effect of added zinc ions on inhibitory activity (VIM-1): 10 μM compound, additional 100 μM ZnCl2 in assay buffer
T2 construct: made in house
Procedure: as §1, §2

[3] = target: T3, VIM‐2 (Escherichia coli, UniProt Q5U7L7); assay: Kd determination using isothermal titration calorimetry; format: binding; settings: ITC, 250 μM compound into 50 μM VIM-2, 25 °C
T3 construct: made in house
Procedure: The next step was the investigation of the binding thermodynamics of 3 a, 3 o, and 3 s. For these experiments we used a closely related enzyme VIM‐2 which is an isoform of VIM‐1 and can be recombinantly expressed in very high concentrations, suitable tor isothermal titration calorimetry (ITC) experiments (Figure 6).
VIM‐2 expression and purification was published elsewhere.[19] Before the measurement the VIM‐2 protein was dialyzed against 500 times the volume of buffer (50 mM Tris, 500 mM NaCl, 5 % (v/v) glycerol with a pH=8) using a dialysis membrane with a 3.5 kDa MWCO. For the measurements the compounds 3 a, 3 o, or 3 s, respectively, were diluted using the dialyses buffer to a final concentration of 250 μM containing a final DMSO concentration of 1 %. The VIM‐2 protein was diluted to a final concentration of 50 μM, supplemented with 1 % DMSO using the dialysis buffer and pure DMSO. For the control measurements dialysis buffer was supplemented with pure DMSO to a final concentration of 1 %. The measurements were performed using an “Affinity ITC” (TA‐Instruments) in reversed mode, with a stir rate of 75 rpm and a temperature of 25 °C. The VIM‐2 was placed in the cell and the respective compound in the syringe. For blank measurements either the protein or compound dilution were exchanged with buffer containing 1 % DMSO. For the measurements of 3 a and 3 s one time 0.5 μl was injected followed by 50 injections of 2 μl with a spacing of 240 s. 3 o was measured with one injection of 0.5 μl followed by 35 injections of 2 μl with a spacing of 240 s. The data were analyzed using the “NanoAnalyze Data Analysis” software (version 3.10.0; TA‐Instruments).

[4] = test system: E. coli NDM‐1 (T2359); assay: Intrinsic antimicrobial activity (MIC, CLSI microdilution), E. coli NDM-1; format: cell-based; settings: for MIC: Escherichia coli; for Intrinsic antimicrobial activity: compound alone, E. coli transformants producing NDM-1 or VIM-1 (Table 2)
Procedure: (§3) Minimal inhibitory concentrations (MICs) of imipenem monohydrate (Sigma‐Aldrich)±compound 3 a, 3 o, or 3 s against transformed E. coli strains producing NDM‐1 or VIM‐1 were determined according to microdilution method established by Clinical and Laboratory Standards Institute (CLSI).^20 The checkerboard assay was performed to test for synergy in vitro. The microtiter‐plates were set up with serial doubling dilutions of compound 3 a, 3 o, or 3 s (2‐128 mg/L) and imipenem (0.125‐128 mg/L).

[5] = test system: E. coli VIM‐1 (T2544); assay: Intrinsic antimicrobial activity (MIC, CLSI microdilution), E. coli VIM-1; format: cell-based; settings: Escherichia coli
Procedure: as §3

[6] = test system: E. coli NDM‐1 (T2359); assay: Checkerboard synergy assay with imipenem, E. coli NDM-1; format: cell-based; settings: for Imipenem MIC: E. coli NDM-1 (T2359); for Reduction of the MIC of imipenem: NDM-1 producing bacteria, maximal reduction
Procedure: (§4) To investigate this, the MIC of imipenem or combined with various concentrations of compound 3a, 3o, or 3 s was determined against E. coli transformants producing NDM‐1 or VIM‐1 (Table 3 and 4).
as §3

[7] = test system: E. coli VIM‐1 (T2544); assay: Checkerboard synergy assay with imipenem, E. coli VIM-1; format: cell-based; settings: for Imipenem MIC: E. coli VIM-1 (T2544); for Reduction of the MIC of imipenem: VIM-1 producing bacteria, maximal reduction
Procedure: as §4, §3

[8] = Escherichia coli, read-out: Imipenem MIC

T1 sequence (C7C422 29-270, looked up, species assumed): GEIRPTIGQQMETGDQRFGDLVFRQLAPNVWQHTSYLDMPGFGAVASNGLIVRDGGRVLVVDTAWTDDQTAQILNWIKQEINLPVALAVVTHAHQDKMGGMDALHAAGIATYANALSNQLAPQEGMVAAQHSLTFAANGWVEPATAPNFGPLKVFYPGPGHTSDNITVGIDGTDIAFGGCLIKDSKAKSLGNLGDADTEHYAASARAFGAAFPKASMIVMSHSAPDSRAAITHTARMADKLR

SMILES | IC50 [1] [nM] | Effect of added zinc ions on inhibitory activity (NDM-1) [1] | IC50 [2] [nM] | Effect of added zinc ions on inhibitory activity (VIM-1) [2] | Kd ([3]; inset of Figure 6) [nM] | MIC [4] [µg/mL] | Intrinsic antimicrobial activity [4] | MIC [5] [µg/mL] | Imipenem MIC ([6]; +2 μg/ml compound) [µg/mL] | Imipenem MIC ([6]; +4 μg/ml compound) [µg/mL] | Imipenem MIC ([6]; +8 μg/ml compound) [µg/mL] | Imipenem MIC ([6]; +16 μg/ml compound) [µg/mL] | Imipenem MIC ([6]; +32 μg/ml compound) [µg/mL] | Imipenem MIC ([6]; +64 μg/ml compound) [µg/mL] | Imipenem MIC ([6]; +128 μg/ml compound) [µg/mL] | Imipenem MIC ([7]; +2 μg/ml compound) [µg/mL] | Imipenem MIC ([7]; +4 μg/ml compound) [µg/mL] | Imipenem MIC ([7]; +8 μg/ml compound) [µg/mL] | Imipenem MIC ([7]; +16 μg/ml compound) [µg/mL] | Imipenem MIC ([7]; +32 μg/ml compound) [µg/mL] | also measured
O=C1CCCC1SCCCS (stereo not shown) [3 a, 2‐((3‐Mercaptopropyl)thio)cyclopentanone] | 480 ± 70 | does not impair the inhibitory activity | 170 ± 40 | does not impair the inhibitory activity | 878 | > 512 | no intrinsic antimicrobial activity | > 512 | 128 | 128 | 128 | 64 | 64 | 64 | 32 | 32 | 32 | 16 | 16 | 16 | Kd [3]: 880 nM; Imipenem MIC ([7]; +64 μg/ml compound): 16 µg/mL; Imipenem MIC ([7]; +128 μg/ml compound): 8 µg/mL
O=C1C(SCCCS)CCN1c1nccs1 (stereo not shown) [3 s, 3‐((3‐Mercaptopropyl)thio)‐1‐(thiazol‐2‐yl)pyrrolidin‐2‐one] | 390 ± 50 | does not impair the inhibitory activity | 40 ± 10 | does not impair the inhibitory activity | 166 | > 512 | no intrinsic antimicrobial activity | > 512 | 128 | 128 | 64 | 64 | 64 | 32 | 16 | 32 | 16 | 16 | 16 | 8 | ΔH [3]: -6.45 kcal/mol; Reduction of the MIC of imipenem [6]: up to 8 fold; Imipenem MIC ([7]; +64 μg/ml compound): 4 µg/mL; Imipenem MIC ([7]; +128 μg/ml compound): 2 µg/mL; Reduction of the MIC of imipenem [7]: ≤ 32 fold
O=C1C(SCCCS)CCN1c1ccccc1 (stereo not shown) [3 o, 3‐((3‐Mercaptopropyl)thio)‐1‐phenylpyrrolidin‐2‐one] | 300 ± 40 | does not impair the inhibitory activity | 20 | does not impair the inhibitory activity | 534 | > 512 | no intrinsic antimicrobial activity | > 512 | 128 | 128 | 128 | 128 | 32 | 32 | 16 | 16 | 16 | 16 | 16 | 8 | ΔH [3]: -11.7 kcal/mol; Reduction of the MIC of imipenem [6]: up to 8 fold; Imipenem MIC ([7]; +64 μg/ml compound): 2 µg/mL; Imipenem MIC ([7]; +128 μg/ml compound): 1 µg/mL; Reduction of the MIC of imipenem [7]: ≤ 32 fold
C[C@@H](O)[C@H]1C(=O)N2C(C(=O)O)=C(SCCN=CN)C[C@H]12 [Imipenem, imipenem, reference compound] |  |  |  |  |  |  |  |  |  |  |  |  |  |  |  |  |  |  |  |  | MIC [6, 8]: 128 µg/mL; MIC [7, 8]: 32 µg/mL
Cc1ccc(C(=O)CSCCCS)cc1 [3 c, 2‐((3‐Mercaptopropyl)thio)‐1‐(p–tolyl)ethanone] | 250 ± 60 |  | 70 ± 10 |  |  |  |  |  |  |  |  |  |  |  |  |  |  |  |  |  | 
CN(Cc1ccc(Cl)cc1)C(=O)CSCCS [3 w, N‐(4‐Chlorobenzyl)‐2‐((2‐mercaptoethyl)thio)‐N‐methylacetamide] | 580 ± 30 |  | 100 ± 10 |  |  |  |  |  |  |  |  |  |  |  |  |  |  |  |  |  | 
